Laboratory results reported in patent US20160193328A1, “Immunoadjuvant Compositions and uses Thereof” (INSERM (INSTITUT NATIONAL DE LA SANTÉ ET DE LA RECHERCHE …, priority 2013, published 2016).

Columns and labels:
[1] = tested on: OVA-specific IgG; assay: OVA-specific IgG in serum by ELISA after immunisation; format: in vivo, C57Bl/6 mice
[2] = tested on: OVA-specific B cells; assay: OVA-specific B cell response in dLN after immunisation (flow cytometry); format: in vivo, C57Bl/6 mice; conditions: TLR agonist added to IFA; 100 μg OVA s.c.; 14 days; FIG. 2A
Protocol: (§1) Mice were either i.p. injected or immunized s.c. at the base of tail with 40 μg of peptide 1W1K, 100 μg of OVA, 200 μg of Ea-FITC in the indicated adjuvant with or without soluble TLR agonist, in a final volume of 200 µL. To target moDC, mice were immunised s.c. with 1.2×1010 beads (which correspond to 40 μg Ea52-68, 1W1K or 100 μg OVA) in indicated adjuvant with or without soluble TLR agonist. At indicated times post-immunisation, spleen or dLN (inguinal and periaortic) were collected and cells were stained for flow cytometry analysis.
For population analysis, dLN were harvested from mice and single cell suspensions were prepared in PBS with 2% FCS, 5 mM EDTA. For DC analysis, lymphoid organs were dissociated using 125 μg/mL LiberaseTL (Roche) and 40 μg/mL DNAase I (Sigma-Aldrich) at 37° C. for 20 min. […] Data were collected on a BD LSRII™ (BD Biosciences) and analysed using FlowJo software (Tree Star).
We hypothesized that an increase in the CD4+ T cell help and specifically an increase of the Tfh cells, the critical regulators of B cell responses, could result in a greater B cell response to the Ag after addition of TLR agonist to another adjuvant. The murine B cell response to ovalbumin (OVA) in wt animals is a valuable immunisation model that can be monitored via the polyclonal Ig repertoires. OVA-specific B cells can be detected by flow cytometry as CD3-IgD− cells that bind specifically to A1exa488-conjugated OVA (OVA+) (data not shown). […] Using this strategy, we determined if addition of TLR agonist to IFA impacts OVA-specific B cell responses in vivo. […]

[3] = tested on: 1W1K-specific Tfh cells; assay: 1W1K-specific CD4+ T cell and Tfh cell response in draining lymph nodes after immunisation (pMHCII tetramer flow cytometry); format: in vivo, C57Bl/6 mice; conditions: for 1W1K-specific Tfh cells in the dLN / amount of 1W1K-specific CD4+ T cells / total number of CD4+ T cells in the dLN: TLR agonist added to IFA; for 1W1K-specific Tfh cells in the dLN: 40 μg 1W1K s.c., 9 days, FIG. 1A; for amount of 1W1K-specific CD4+ T cells / total number of CD4+ T cells in the dLN: 1W1K s.c., peak of primary response, versus IFA only
Protocol: as §1
To block IL-6 signalling, i.p. injections of 100 μg D7715A7 mAb (anti-IL-6R[…], eBioscience) or Rat IgG2b isotype control were performed at day −1 and +4 post-immunisation. To deplete mice of monocytes, i.v. injections of 250 μL of clodronate liposomes or control PBS liposomes (clodronateliposome.com) were performed from day −1 every second day.
For population analysis, dLN were harvested from mice and single cell suspensions were prepared in PBS with 2% FCS, 5 mM EDTA. For DC analysis, lymphoid organs were dissociated using 125 μg/mL LiberaseTL (Roche) and 40 μg/mL DNAase I (Sigma-Aldrich) at 37° C. for 20 min. 1×10^8 cells/ml were labelled at 4° C. for 45 min with mAbs: Reagents from BD Pharmingen [AlexaFluor488-K112-91 (anti-Bcl-6); PE-M1/70 (anti-CD11b), PE-281-2 (anti-CD138); Cy5PE-M1/70 (anti-CD11b); APC-2G8 (anti-CXCR5); V500-500A2 (anti-CD3); Pacific Blue-53-6.7 (anti-CD8α); Biotin-Jo2 (anti-CD95); Biotin-2G8 (anti-CXCR5)], Reagents from eBioscience [FITC-eBio1D3 (anti-CD19), FITC-RA3-6B2 (anti-B220), FITC-RM4-5 (anti-CD4); PE-MAR-1 (anti-FceR1), PE-205yekta (anti-CD205), PE-2E7 (anti-CD 103), PE-MP5-20F3 (anti-IL-6); Cy5PE-RM4-5 (anti-CD4); Cy7PE-N418 (anti-CD11c), Cy7PE-53-6.7 (anti-CD8α); Cy5.5PE-anti-CD19, Cy5.5PE-HK1.4 (anti-Ly-6c); APC-N418; AlexaFluor647 anti-GL-7; AlexaFluor700-MEL-14 (anti-CD62L), AlexaFluor700-eBio1D3, AlexaFluor700-IM7 (anti-CD44); APCeFluor780-IM7, APCeFluor780-BM8 (anti-F4/80), APCeFluor780-RA3-6B2; eFluor450-11-26c (anti-IgD), eFluor450-MEL-14; biotin-Y-Ae], reagent from R&D PE-475301(anti-CCR2). Before data collection […] propidium iodide (PI) was added to samples. 1W1K-IAb tetramer was obtained from NIH Tetramer core facility. For IL-6 intracellular staining cell suspensions were incubated for 4 hr at 37° C. in the presence of 3 μg/mL Golgi Plug (BD Bioscience) and 4 μM Monensin, fixed and permabilised using BD Fixation/Permeabilisation kit. Before permeabilisation cells were stained with Fixable Viability Dye eFluor450 or eFluor660 (eBioscience). Data were collected on a BD LSRII™ (BD Biosciences) and analysed using FlowJo software (Tree Star).
6-8-wk-old C57Bl/6 mice were irradiated (0.85 Gy) the day before i.v. injection of 1×10^7 T cell-depleted BM cells that consisted of a mix of 70% from CD11c-DTR or JHT supplemented with 30% from TLR9KO, Myd88KO, TRIFKO, IL-6K0 or wt CD45.1 C57Bl/6 mice. After 8 wk, the chimeras with CD11c-DTR BM were i.p. treated every second day with 4 ng/g body weight DTx (Sigma-Aldrich) and 1 day before immunisation with 20 ng/mouse s.c. Treated animals were then s.c. immunised either with 1W1K or OVA as described above.
The combination of adjuvant to a peptide favours robust T-dependent B cell immunity. To test whether addition of TLR agonists to other vaccine adjuvant could have a synergistic effect on the induced immune response, we examined the I-Ab restricted murine CD4+ T cell response to a peptide variant ([…], called 1W1K peptide hereafter, SEQ ID NO:1) of the I-E alpha chain immunodominant peptide 52-68 (Ea52-68) in C57Bl/6 mice. We followed the 1W1K-specific CD4+ T cells with the corresponding pMHCII tetramer in the draining lymph nodes (dLN) after sub-cutaneous (s.c.) immunisation in Incomplete Freund's adjuvant (IFA). At the peak of the effector CD4+ T cell response, we detected the CD44+ and pMHCII tetramer+1W1K-specific CD4+ T cells in the dLN (data not shown). […]

[4] = tested on: IL-6; assay: IL-6 in serum of immunised animals (IL-6 ELISA kit); format: in vivo, mice; conditions: 4 hours after i.p. injection; 1W1K in Alum
[5] = BM chimeras (JHT + MyD88KO) lacking MyD88 signalling in B cells, added to IFA

| Substance | enhancing effect on OVA-specific IgG [1, 5] | circulating OVA-specific IgG ([1]; IFA supplemented with TLR agonist, 14 days, FIG. 2B) | OVA-specific GC-B cells [2] | OVA-specific PC [2] | overall OVA-specific B cells [2] | enhancing effect on 1W1K-specific Tfh cells [3, 5] | 1W1K-specific Tfh cells in the dLN [3] | amount of 1W1K-specific CD4+ T cells [3] | total number of CD4+ T cells in the dLN [3] | 1W1K-specific Tfh cell differentiation ([3]; added to Alum, i.p., JHT mice (no functional B cells), 5 days) | increase of 1W1K-specific Tfh response ([3]; chimeras (CD11c-DTR + MyD88KO), DTx: MyD88 signalling in CD11c+ cells impaired, FIG. 3B) | IL-6 in the serum, sensitised JHT animals compared to sensitised wt mice [4] |
| --- | --- | --- | --- | --- | --- | --- | --- | --- | --- | --- | --- | --- |
| lipopolysaccharide [LPS] | also observed | significant increase | increased | increased | increased | also observed | induced an increase | did not statistically change | did not statistically change | enhanced | not observed | significant decrease |
| poly(I:C) |  |  |  |  |  |  | had no enhancing effect | did not statistically change | did not statistically change |  |  |  |
